Values after ≈ are worked out from the molar mass of the structure shown. Values joined by “and” are separate entries in the source; they are usually repeats but may differ in a detail not shown here. Identical values can stand only once. Active and inactive are the calls of the source. No cut-off for these calls is given here.

In series [1] the target is T1, Acetylcholinesterase (Homo sapiens, UniProt P22303). The experiment in a line: Potency index, ratio of rhein-huprine hybrid IC50 to test compound IC50 for inhibition of human recombinant AChE using acetylthiocholine iodide as a substrate preincubated for 20 mins followed by substrate addition by spectrophotometric analysis.
T1 sequence (P22303 whole entry): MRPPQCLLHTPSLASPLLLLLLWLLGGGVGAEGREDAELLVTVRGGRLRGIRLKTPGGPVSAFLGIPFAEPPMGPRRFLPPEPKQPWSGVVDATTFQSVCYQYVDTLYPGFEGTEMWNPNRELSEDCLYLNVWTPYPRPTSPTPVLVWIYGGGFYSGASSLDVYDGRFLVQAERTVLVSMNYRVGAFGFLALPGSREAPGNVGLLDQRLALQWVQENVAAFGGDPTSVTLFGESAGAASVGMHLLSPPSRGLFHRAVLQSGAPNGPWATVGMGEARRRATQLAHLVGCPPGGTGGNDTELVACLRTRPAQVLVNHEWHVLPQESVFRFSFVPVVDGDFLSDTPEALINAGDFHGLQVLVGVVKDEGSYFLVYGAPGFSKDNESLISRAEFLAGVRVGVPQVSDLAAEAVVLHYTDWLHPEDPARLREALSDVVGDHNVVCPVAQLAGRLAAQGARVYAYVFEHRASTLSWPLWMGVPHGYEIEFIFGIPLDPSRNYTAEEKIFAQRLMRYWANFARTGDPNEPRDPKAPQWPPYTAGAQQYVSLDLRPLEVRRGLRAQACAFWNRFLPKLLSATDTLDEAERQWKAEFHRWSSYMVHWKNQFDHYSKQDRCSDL
Series [2] concerns the target T2, Cholinesterase (Homo sapiens, UniProt P06276). The experiment in a line: Potency index, ratio of donepezil IC50 to test compound IC50 for inhibition of human serum BChE using butyrylthiocholine iodide as a substrate preincubated for 20 mins followed by substrate addition by spectrophotometric analysis. The series is classed as cell-free.
A short description of series [3]: Metal chelating activity assessed as compound-Cu2+ complex formation at ratio of 0.5:1 by pyrocatechol violet assay. The following applies: dose 3.0 mM.
Series [4] is described as follows: Permeability of the compound in PBS/EtOH by PAMPA-BBB assay. The format is ADME. The note with it: read-out: permeability. On the technique in general: PAMPA measures passive passage across an artificial lipid membrane.
The target in series [5] is Amyloid-beta precursor protein (Homo sapiens) (UniProt P05067). Kind of series: Inhibition of amyloid beta (1 to 42) (unknown origin) aggregation in Escherichia coli BL21 (DE3) at 10 uM incubated overnight by thioflavin S based fluorescence analysis relative to control.
Chain of Amyloid-beta precursor protein (Homo sapiens) (P05067 whole entry): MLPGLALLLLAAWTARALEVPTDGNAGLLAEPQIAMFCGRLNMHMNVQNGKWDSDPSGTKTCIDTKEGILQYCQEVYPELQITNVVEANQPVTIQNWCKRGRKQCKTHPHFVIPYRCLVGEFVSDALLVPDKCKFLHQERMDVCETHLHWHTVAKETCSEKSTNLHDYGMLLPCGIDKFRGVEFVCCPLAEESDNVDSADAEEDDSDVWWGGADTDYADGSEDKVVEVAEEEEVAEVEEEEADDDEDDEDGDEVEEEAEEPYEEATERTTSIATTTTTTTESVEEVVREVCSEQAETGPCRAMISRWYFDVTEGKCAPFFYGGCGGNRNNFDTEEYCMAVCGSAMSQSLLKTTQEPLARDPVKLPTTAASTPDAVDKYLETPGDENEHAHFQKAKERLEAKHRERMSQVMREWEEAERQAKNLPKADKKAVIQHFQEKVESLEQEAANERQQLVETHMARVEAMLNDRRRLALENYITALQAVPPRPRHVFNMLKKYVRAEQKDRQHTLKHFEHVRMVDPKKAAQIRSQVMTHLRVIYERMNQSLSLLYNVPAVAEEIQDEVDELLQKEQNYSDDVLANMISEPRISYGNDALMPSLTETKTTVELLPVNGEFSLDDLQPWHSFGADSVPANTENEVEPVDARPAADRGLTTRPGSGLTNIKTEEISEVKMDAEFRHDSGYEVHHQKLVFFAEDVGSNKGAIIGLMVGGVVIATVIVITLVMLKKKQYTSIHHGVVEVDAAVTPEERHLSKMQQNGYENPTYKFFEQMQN
A short description of series [6]: Neurotoxicity in mouse HT-22 cells assessed as decrease in cell viability at up to 10 uM by MTT assay. The series is classed as cell-based. On the technique in general: Tetrazolium dyes change colour on reduction, which living cells bring about.
Series [7] in a line: Metal chelating activity assessed as compound-Cu2+ complex formation at 3 mM in presence of CuSO4 by UV-Vis spectra analysis.
Series [8] can be described thus: Kinetic solubility of the compound in DMSO/PBS buffer measured after 2 hrs by nephalometric analysis. The series is classed as physicochemical. The note with it: for solubility kinetic at 2 h: DMSO/PBS buffer, read-out: Kinetic_solubility.
The nature of series [9]: Metal chelating activity assessed as compound-Cu2+ complex formation at ratio of 5:1 by pyrocatechol violet assay. The note with it: dose 3.0 mM.
The target of series [10] is T1, Acetylcholinesterase.
Description: Inhibition of human recombinant AChE using acetylthiocholine iodide as a substrate preincubated for 20 mins followed by substrate addition by spectrophotometric analysis
Series [11] deals with T3, Beta-secretase 1 (Homo sapiens, UniProt P56817). The experiment in a line: Inhibition of human recombinant BACE-1 expressed in Escherichia coli using panvera peptide as a substrate incubated for 1 hr by fluorescence analysis.
T3 sequence (P56817 whole entry): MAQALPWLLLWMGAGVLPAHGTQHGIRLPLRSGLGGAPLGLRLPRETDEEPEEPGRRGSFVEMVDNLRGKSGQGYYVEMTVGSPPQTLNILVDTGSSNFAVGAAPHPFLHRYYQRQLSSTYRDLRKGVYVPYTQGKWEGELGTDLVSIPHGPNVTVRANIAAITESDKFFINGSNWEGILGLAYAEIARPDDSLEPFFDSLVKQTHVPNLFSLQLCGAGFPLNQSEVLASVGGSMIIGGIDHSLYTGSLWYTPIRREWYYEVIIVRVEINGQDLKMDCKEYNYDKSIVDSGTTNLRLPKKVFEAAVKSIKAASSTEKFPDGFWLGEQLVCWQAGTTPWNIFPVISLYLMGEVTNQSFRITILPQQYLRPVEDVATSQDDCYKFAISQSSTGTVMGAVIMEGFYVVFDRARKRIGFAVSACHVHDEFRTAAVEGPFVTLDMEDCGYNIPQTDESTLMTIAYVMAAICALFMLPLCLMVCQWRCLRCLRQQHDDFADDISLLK
Series [12] in a line: Metal chelating activity assessed as compound-Zn2+ complex formation at 3 mM in presence of ZnCl2 by UV-Vis spectra analysis.
The target of series [13] is T2, Cholinesterase.
Description: Inhibition of human serum BChE using butyrylthiocholine iodide as a substrate preincubated for 20 mins followed by substrate addition by spectrophotometric analysis
Series [14] can be described thus: Metal chelating activity assessed as compound-Cu2+ complex formation at ratio of 2:1 by pyrocatechol violet assay. The note with it: dose 3.0 mM.
The nature of series [15]: Metal chelating activity assessed as compound-Cu2+ complex formation at ratio of 1:1 by pyrocatechol violet assay. The note with it: dose 3.0 mM.
Series [16] can be described thus: Acute toxicity in zebra fish embryos assessed as lethality measured every 24 hrs for 72 hrs. On the set-up: species or system Danio rerio. The following applies: zebrafish.
Series [17] has as its target T1, Acetylcholinesterase. The experiment in a line: Potency index, ratio of donepezil IC50 to test compound IC50 for inhibition of human recombinant AChE using acetylthiocholine iodide as a substrate preincubated for 20 mins followed by substrate addition by spectrophotometric analysis.
The target of series [18] is T2, Cholinesterase. Kind of series: Potency index, ratio of rhein-huprine hybrid IC50 to test compound IC50 for inhibition of human serum BChE using butyrylthiocholine iodide as a substrate preincubated for 20 mins followed by substrate addition by spectrophotometric analysis. The format is cell-free.
Series [19] addresses Microtubule-associated protein tau (Homo sapiens) (UniProt P10636). The experiment in a line: Inhibition of tau aggregation (unknown origin) in Escherichia coli BL21 (DE3) at 10 uM incubated overnight by thioflavin S based fluorescence analysis relative to control.
The target in series [20] is T2, Cholinesterase. Kind of series: Potency index, ratio of huprine-Y IC50 to test compound IC50 for inhibition of human serum BChE using butyrylthiocholine iodide as a substrate preincubated for 20 mins followed by substrate addition by spectrophotometric analysis. The series is classed as cell-free.
A short description of series [21]: Metal chelating activity assessed as compound-Fe2+ complex formation at 3 mM in presence of FeCl2 by UV-Vis spectra analysis.
For series [22], the system named is HT-22. The experiment in a line: Neuroprotective activity against glutamate induced neuronal death in mouse HT-22 cells assessed as increase in cell viability at 1 to 25 uM by MTT assay. The series is classed as functional, cell-based. The following applies: dose 1-25 µM.
A short description of series [23]: Antioxidant activity assessed as free radical scavenging activity at 500 uM incubated for 30 mins under dark condition by DPPH assay. The series is classed as functional. A general note: The DPPH test is a chemical assay of radical scavenging.
For series [24], the target named is T3, Beta-secretase 1. Kind of series: Inhibition of human recombinant BACE-1 expressed in Escherichia coli at 10 uM using panvera peptide as a substrate incubated for 1 hr by fluorescence analysis relative to control.
The nature of series [25]: Neurotoxicity in mouse HT-22 cells assessed as decrease in cell viability at up to 25 uM by MTT assay. The series is classed as cell-based.
The nature of series [26]: Acute toxicity in zebra fish embryos assessed as lethality at 12.5 to 100 uM measured every 24 hrs for 72 hrs relative to control. On the set-up: species or system Danio rerio. The following applies: zebrafish, dose 12.5-100 µM, read-out: Activity.
Series [27] is described as follows: Antioxidant activity assessed as free radical scavenging activity incubated for 30 mins under dark condition by DPPH assay. The format is functional.
Series [28] relates to HT-22. Kind of series: Neuroprotective activity against glutamate induced neuronal death in mouse HT-22 cells assessed as increase in cell viability by MTT assay. The format is functional, cell-based. The following applies: dose 1-25 µM.
The test system of series [29] is HT-22. Kind of series: Neuroprotective activity against glutamate induced neuronal death in mouse HT-22 cells assessed as increase in cell viability at 25 uM by MTT assay. The format is functional, cell-based.

Chain of Microtubule-associated protein tau (Homo sapiens) (P10636 whole entry): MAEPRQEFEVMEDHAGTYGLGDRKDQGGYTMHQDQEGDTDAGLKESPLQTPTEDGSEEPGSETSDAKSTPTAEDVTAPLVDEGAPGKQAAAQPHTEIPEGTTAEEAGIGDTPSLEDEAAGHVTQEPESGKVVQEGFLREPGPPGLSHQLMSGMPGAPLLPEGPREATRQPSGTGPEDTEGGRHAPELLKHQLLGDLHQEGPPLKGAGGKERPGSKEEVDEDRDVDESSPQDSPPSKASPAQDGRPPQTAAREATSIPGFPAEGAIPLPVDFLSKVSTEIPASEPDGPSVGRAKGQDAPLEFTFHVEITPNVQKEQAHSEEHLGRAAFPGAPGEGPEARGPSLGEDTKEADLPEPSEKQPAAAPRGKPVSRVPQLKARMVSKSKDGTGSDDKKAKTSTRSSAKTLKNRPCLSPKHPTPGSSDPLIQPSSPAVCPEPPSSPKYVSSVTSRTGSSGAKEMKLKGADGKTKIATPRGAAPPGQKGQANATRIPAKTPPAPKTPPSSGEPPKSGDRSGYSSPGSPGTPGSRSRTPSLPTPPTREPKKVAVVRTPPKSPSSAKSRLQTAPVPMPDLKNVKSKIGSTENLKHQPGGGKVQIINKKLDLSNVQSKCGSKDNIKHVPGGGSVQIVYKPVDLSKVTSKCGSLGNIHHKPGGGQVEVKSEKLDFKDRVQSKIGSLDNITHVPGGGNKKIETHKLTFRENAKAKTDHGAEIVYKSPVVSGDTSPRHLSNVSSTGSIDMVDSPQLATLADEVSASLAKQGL
T2 sequence (P06276 whole entry): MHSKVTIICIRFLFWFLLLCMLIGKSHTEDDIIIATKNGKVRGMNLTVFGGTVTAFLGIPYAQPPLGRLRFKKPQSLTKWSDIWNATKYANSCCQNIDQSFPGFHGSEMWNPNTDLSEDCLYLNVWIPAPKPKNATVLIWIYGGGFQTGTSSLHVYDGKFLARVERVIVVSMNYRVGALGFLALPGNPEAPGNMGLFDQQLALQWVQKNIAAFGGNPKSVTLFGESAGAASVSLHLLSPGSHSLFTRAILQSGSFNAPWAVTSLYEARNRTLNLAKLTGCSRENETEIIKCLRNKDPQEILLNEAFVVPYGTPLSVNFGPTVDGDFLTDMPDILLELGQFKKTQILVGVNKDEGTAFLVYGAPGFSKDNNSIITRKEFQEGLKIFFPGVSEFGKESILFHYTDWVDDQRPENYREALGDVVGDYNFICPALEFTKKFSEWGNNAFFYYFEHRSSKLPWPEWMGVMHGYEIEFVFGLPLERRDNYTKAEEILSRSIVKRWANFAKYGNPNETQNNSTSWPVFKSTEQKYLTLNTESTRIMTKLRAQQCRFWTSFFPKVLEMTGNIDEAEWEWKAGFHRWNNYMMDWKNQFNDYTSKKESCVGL

The inhibition is the relative decrease from the control value, in per cent. In general, IC50 refers to the concentration that gives 50% inhibition. What is called LC50 is the concentration that kills 50% of the test population. In the case of `CC1=CC2Cc3nc4cc(Cl)ccc4c(NCCCCCCCCCNS(=O)(=O)c4cn[nH]c4)c3C(C1)C2` (configuration not stated), the Ratio IC50 in series [1] is under 9; in [2] it was 79; in series [17] it was under 65; in series [18], 7; in series [20], 2. In addition, the result in series [3], in series [7], in [9], in [12], in [14] and in [15] was Active. In addition, in series [21], the outcome was Active. Moreover, in series [4], the Papp came out at 6.3 ×10⁻⁶ cm/s. The inhibition came out at 35.3% in [5] and 55.5% in [19]. In series [6], the Activity result was “Toxic”. Also, in series [8], the solubility kinetic at 2 h was determined as 5.7 µg/mL (≈ 10.2 µM). In addition, the IC50 in [10] came out at 2.4 nM; in series [11], 10.8 µM; in series [13], 50.3 nM. The LC50 at 72 h in series [16] is over 100 µM. The outcome in series [22] and in series [23] was inactive.

For `CC1=CC2Cc3nc4cc(Cl)ccc4c(NCCCCCCCCCNC(=O)c4ccc[nH]c4=O)c3C(C1)C2` (configuration not stated), the Ratio IC50 in series [1] is under 9; in series [2], 79; in series [17] it was under 65; in [18], 7; in series [20] it was 2. Further, the Papp in series [4] was 6.7 ×10⁻⁶ cm/s. Also, the inhibition in series [5] came out at 42.3%; in series [24], 6.92%; in series [19] it was 48.5%. Also, the outcome in series [7] and in [12] was Active. The solubility kinetic at 2 h in series [8] is 7.7 µg/mL (≈ 14.1 µM). Also, the IC50 in series [10] was 1.82 nM; in [13] it was 31.9 nM. Also, the LC50 at 72 h in [16] came to 57.8 µM. Also, the Activity entry in series [25] is “Non-Toxic”. Also, the result in series [22] and in series [23] was inactive.

`COc1cc(CNC(=O)CCCCCCCCNc2c3c(nc4cc(Cl)ccc24)CC2C=C(C)CC3C2)ccn1` (configuration not stated): the Ratio IC50 in series [1] is under 9; in series [2] it was 79; in series [17] it was under 65; in series [18], 7; in series [20], 2. Also, the Papp in [4] was 8.2 ×10⁻⁶ cm/s. The inhibition in [5] came to 29.4%; in series [24] it was 26.5%; in series [19], 41.6%. Also, the solubility kinetic at 2 h in series [8] was 5.1 µg/mL (≈ 9.09 µM). For the same compound, the IC50 in series [10] worked out at 1.25 nM; in [13], 88.5 nM. The LC50 at 72 h in series [16] is 7.1 µM. Moreover, the mortality at 24 h, 100 µM in series [26] was determined as 75%. For the same compound, the Activity entry in series [25] was “Non-Toxic”. Further, in [23], the outcome was inactive.

As for `CC1=CC2Cc3nc4cc(Cl)ccc4c(NCCCCCCCCC(=O)N4CCNC(=O)C4)c3C(C1)C2` (configuration not stated), the Ratio IC50 in [1] was under 9; in series [2] it was 79; in series [17], under 65; in series [18] it was 7; in series [20], 2. For the same compound, the Papp in [4] stood at 4.9 ×10⁻⁶ cm/s. Besides, the inhibition in series [5] was determined as 9.7%; in [19], 15%. Further, the solubility kinetic at 2 h in series [8] amounted to 43.3 µg/mL (≈ 82.8 µM). Besides, the IC50 is 0.41 nM in [10] and 74.8 nM in series [13]. For the same compound, the inhibition entry in [24] was “inactive”. The LC50 at 72 h in series [16] is over 100 µM. For the same compound, the Activity entry in [25] is on record as “Non-Toxic”. Further, the result in [23] was inactive.

As a reminder, the EC50 is the concentration giving half of the maximal effect. As to `CC1=CC2Cc3nc4cc(Cl)ccc4c(NCCCCCCCCC(=O)Nc4cn[nH]c4)c3C(C1)C2` (configuration not stated), the Ratio IC50 in series [1] is under 9; in [2], 79; in [17], under 65; in series [18], 7; in series [20] it was 2. In addition, the outcome in series [3], in series [7], in [9], in series [12], in [14] and in [15] was Active. The result in [21] was Active. In series [27], the EC50 worked out at 19.6 µM. Also, in series [4], the Papp is 5.9 ×10⁻⁶ cm/s. For the same compound, the inhibition was determined as 32.6% in series [5], 16.2% in [24] and 45.3% in series [19]. Also, the solubility kinetic at 2 h in [8] is 9.3 µg/mL (≈ 18.4 µM). Further, the IC50 in [10] came out at 2.39 nM; in [13], 64 nM. For the same compound, the LC50 at 72 h in series [16] stood at 69.1 µM. In addition, the Activity entry in [25] is “Non-Toxic”; in [28], “Dose-Dependent Effect”.

As to `CC[N+](C)(CC)CCC[n+]1c(-c2ccccc2)c2cc(N)ccc2c2ccc(N)cc21`, the inhibition in [5] was 39.2%.

`CC1=CC2Cc3nc4cc(Cl)ccc4c(NCCCCCCCCCNC(=O)c4cc(O)c5c(c4)C(=O)c4cccc(O)c4C5=O)c3C(C1)C2` (configuration not stated): the inhibition turned out to be 47.9% in series [5] and 29.6% in series [19]. Besides, the Kinetic_solubility in [8] (2 h) was 19.7 uM and 14.8 ug ml-1.

For the compound `O=C1O[C@H]([C@@H](O)CO)C(O)=C1O` [ASCORBIC ACID], the EC50 in [27] turned out to be 11.8 µM.

`O=c1c(O)c(-c2ccc(O)c(O)c2)oc2cc(O)cc(O)c12`: in [29], the outcome was Active.

With `O=C(O)CN(CCN(CC(=O)O)CC(=O)O)CC(=O)O`, the result in series [3], in series [9], in [14], in [15] and in series [21] was Active.

Consider `CC1=CC2Cc3nc4cc(Cl)ccc4c(N)c3C(C1)C2` (racemic) [HUPRINE Y], for which, in series [16], the LC50 at 72 h worked out at 20.9 µM.

As for `CC1=CC2Cc3nc4cc(Cl)ccc4c(NCCCCCCCCC(=O)NCc4cc[nH]c(=O)c4)c3C(C1)C2` (configuration not stated), the Ratio IC50 was under 9 in series [1]; 79 in series [2]; under 65 in series [17]; 7 in [18]; 2 in [20]. For the same compound, in series [27], the EC50 is 90.6 µM. For the same compound, the Papp in [4] amounted to 4.4 ×10⁻⁶ cm/s. Further, the inhibition was 19.9% in series [5] and 20.9% in [19]. Besides, the solubility kinetic at 2 h in [8] stood at 13.8 µg/mL (≈ 25.2 µM). The IC50 is 0.63 nM in [10] and 75.8 nM in series [13]. The inhibition entry in series [24] was “inactive”. Moreover, in series [16], the LC50 at 72 h was over 100 µM. Besides, the Activity result in [25] was “Non-Toxic”.

The record behind these values is ChEMBL document CHEMBL4842362, “From virtual screening hits targeting a cryptic pocket in BACE-1 to a nontoxic brain permeable multitarget anti-Alzheimer lead with disease-modifying and cognition-enhancing effects” (Eur J Med Chem, 2021).
